# Starred links: 1 amine or outer side, 2 acyl side, 3 side chain; linkers in the order of their positions; H or OH if unused. Non-standard residues stand in square brackets, D forms with d. Residues, ends and D or L forms follow the SMILES beside them. azaTyr = O=C(N(Cc1ccc(O)cc1)N[*:1])[*:2]
# Tests used:
# [1] = target: CD36 (Rattus norvegicus (Rat), UniProt Q07969); assay: CD36 receptor covalent photolabelling binding assay, competition with [125I]Tyr-Bpa-Ala-hexarelin on rat cardiac membranes
# Chain of CD36 (Q07969 whole entry): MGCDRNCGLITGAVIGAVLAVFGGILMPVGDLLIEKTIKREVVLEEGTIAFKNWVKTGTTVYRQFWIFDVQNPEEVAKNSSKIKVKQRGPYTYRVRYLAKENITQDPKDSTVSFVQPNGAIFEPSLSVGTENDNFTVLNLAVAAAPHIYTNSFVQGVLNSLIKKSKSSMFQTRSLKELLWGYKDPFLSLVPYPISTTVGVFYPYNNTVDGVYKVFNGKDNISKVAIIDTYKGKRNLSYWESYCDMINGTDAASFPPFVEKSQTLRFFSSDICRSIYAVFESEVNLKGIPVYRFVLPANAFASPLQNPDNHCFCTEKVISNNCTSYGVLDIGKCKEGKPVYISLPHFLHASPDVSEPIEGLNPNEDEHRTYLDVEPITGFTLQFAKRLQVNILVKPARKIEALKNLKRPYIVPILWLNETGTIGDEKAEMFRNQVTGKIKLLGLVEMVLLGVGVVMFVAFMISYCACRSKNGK
# [2] = target: human GHS-R1a (Homo sapiens (Human), UniProt Q92847); assay: GHS-R1a binding assay, competition with 125I-ghrelin on membranes of LLC-PK1 cells expressing human GHS-R1a
# Chain of human GHS-R1a (Q92847 whole entry): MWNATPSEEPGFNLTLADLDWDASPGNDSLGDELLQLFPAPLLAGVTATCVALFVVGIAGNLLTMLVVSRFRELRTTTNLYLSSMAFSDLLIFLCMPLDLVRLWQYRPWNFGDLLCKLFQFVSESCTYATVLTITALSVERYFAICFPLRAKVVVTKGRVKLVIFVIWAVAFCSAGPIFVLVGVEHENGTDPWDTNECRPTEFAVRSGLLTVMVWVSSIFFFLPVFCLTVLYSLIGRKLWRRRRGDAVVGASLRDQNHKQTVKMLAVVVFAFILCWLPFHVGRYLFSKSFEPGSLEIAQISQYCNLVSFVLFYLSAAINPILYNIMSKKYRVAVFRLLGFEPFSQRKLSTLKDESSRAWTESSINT
structure (smiles),measurement,setting,value
"C[C@H](NC(=O)[C@@H](Cc1c[nH]c2ccccc12)NC(=O)[C@@H](N)Cc1cnc[nH]1)C(=O)NN(Cc1ccc(O)cc1)C(=O)N[C@H](Cc1ccccc1)C(=O)N[C@@H](CCCCN)C(N)=O [DBG178p, His-D-Trp-Ala-azaTyr-D-Phe-Lys-NH2] (H-H[dW]A[azaTyr][dF]K-NH2)",IC50,"[1]; Table 3, rat cardiac membranes, [125I]Tyr-Bpa-Ala-hexarelin as radioligand, read-out: IC50, binding affinity of aza peptide derivatives towards CD36",28 µM
same,binding activity/affinity at CD36 in words,[1]; compared with parent peptide GHRP-6 or hexarelin,maintaining the binding activity
same,IC50,"[2]; Table 4, LLCPK-1 membranes overexpressing GHS-R1a, radioiodinated (1-28) rat ghrelin as tracer, read-out: EC50 (text: IC50 values from competition curves in GHS-R1a radioreceptor assay)",15.7 µM
same,binding affinity for GHS-R1a receptor in words,[2]; compared with GHRP-6,reducing the binding affinity

# From patent US9708370B2, “Azapeptides as CD36 binding compounds” (VALORISATION-RECHERCHE, LIMITED PARTNERSHIP, priority 2007, dated 2017)
